Data reported in patent US20160022710A1, “PRENATAL AND LACTATION SUPPLEMENTS TO ENHANCE CENTRAL NERVOUS SYSTEM DEVELOPMENT OF OFFSPRING” (ABBOTT LABORATORIES, priority 2013, published 2016).

Experiment: carotenoids in neonatal brain samples
Conditions: neonatal brain samples studied by the Applicants

Row | SMILES | carotenoid occurrence in neonatal brain samples
1 | CC1=CC(O)CC(C)(C)[C@H]1/C=C/C(C)=C/C=C/C(C)=C/C=C/C=C(C)/C=C/C=C(C)/C=C/C1=C(C)C[C@@H](O)CC1(C)C (stereo partly drawn) [trans-lutein] | predominant carotenoid in the majority of neonatal brain samples
2 | CC(C)=CCC/C(C)=C/C=C/C(C)=C/C=C/C(C)=C/C=C/C=C(C)/C=C/C=C(C)/C=C/C=C(\C)CCC=C(C)C [lycopene] | very few neonatal brain samples are found to contain detectable levels
